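In this assay, cells in 96-well plates receive the compound at five concentrations for 48 hours. Endpoints are linearly interpolated between the surrounding concentrations. The concentration for 50% growth inhibition is given as GI50. TGI: concentration producing complete growth inhibition.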
How the values were obtained:
Assay in all cases: growth of human tumour cells (NCI), 48 h
[1] = system: UACC-257 melanoma
[2] = system: 786-0 renal
[3] = system: SK-MEL-5 melanoma
[4] = system: UACC-62 melanoma
[5] = system: CCRF-CEM leukemia
[6] = system: RXF 393 renal
[7] = system: A498 renal
[8] = system: MCF7 breast
[9] = system: NCI-H460 lung
[10] = system: MOLT-4 leukemia

| Structure (SMILES) | GI50 [1] [µM] | TGI [1] [µM] | GI50 [2] [µM] | TGI [2] [µM] | GI50 [3] [µM] | TGI [3] [µM] | GI50 [4] [µM] | TGI [4] [µM] | GI50 [5] [µM] | TGI [5] [µM] | GI50 [6] [µM] | TGI [6] [µM] | GI50 [7] [µM] | TGI [7] [µM] | GI50 [8] [µM] | TGI [8] [µM] | GI50 [9] [µM] | TGI [9] [µM] | GI50 [10] [µM] | TGI [10] [µM] |
| --- | --- | --- | --- | --- | --- | --- | --- | --- | --- | --- | --- | --- | --- | --- | --- | --- | --- | --- | --- | --- |
| COc1ccc(-c2nc(Nc3cc(C)[nH]n3)c3ccccc3n2)cc1 | 13 | 65.2 | 1.27 | > 31.3 | 4.11 | 22.7 | 2.37 | > 100 | 5.18 | 66.2 | 0.6 | 2.67 | 0.271 | 1.46 | 1.71 | 44.6 | 3.1 | > 100 | 3.67 | 58.5 |
| O=C1OC(=O)C(=C\c2ccc3c(c2)OCO3)/C1=C/c1ccc2c(c1)OCO2 | – | > 100 | – | > 100 | – | > 100 | – | > 100 | – | > 88.6 | – | > 100 | – | > 100 | – | > 100 | – | > 100 | – | > 100 |
| CN1C(=O)N(C)C2C1NN=c1s/c(=C\c3ccc(C(F)(F)F)cc3)c(=O)n12 (centres undefined) | 14.5 | > 100 | 3.82 | > 100 | 0.594 | 13.9 | 0.662 | > 100 | 0.955 | > 100 | 1.73 | 6.77 | 2 | 34.6 | 0.392 | > 100 | 0.715 | > 100 | 2.55 | > 100 |
| CCCN(CCS(C)(=O)=O)Cc1ccc(-c2ccc3ncnc(Nc4ccc(OCc5cccc(F)c5)c(Cl)c4)c3c2)o1 | > 25 | > 25 | > 25 | > 25 | > 14.1 | > 25 | > 25 | > 25 | 7.39 | > 25 | 24.9 | > 25 | > 13.6 | > 25 | > 20.2 | > 25 | > 25 | > 25 | 7.31 | > 25 |
| O=C(/C=C/c1cc2ccccc2[nH]c1=O)/C=C/c1cc2ccccc2[nH]c1=O | 8.32 | 19.6 | – | > 26.1 | 23.5 | > 100 | 16.9 | 97.8 | 7.97 | > 100 | 6.88 | 10.8 | > 50.1 | > 100 | 3.84 | > 47.7 | 32.3 | > 100 | 24 | > 100 |
| Cc1ccc(/C=N\NC(=O)c2[nH]c3ccc(F)cc3c2-c2ccccc2)cc1 | 0.493 | > 100 | 0.0387 | 23.2 | 0.0224 | 0.0559 | 0.0516 | > 58.6 | 0.0275 | > 100 | 0.0305 | 1.49 | 0.0387 | 24.5 | 0.0299 | > 100 | 0.0345 | > 37.9 | 0.0421 | > 39.5 |
| O=C(/C=C/c1ccccc1)CCN1CCOCC1 | – | 21.3 | – | 18.8 | – | 33.5 | – | 31.1 | – | 12.1 | – | 26.1 | – | 44 | – | 24.1 | – | 35.8 | – | 29.7 |
